The text below walks through data of patent US10604476B2, “Fluorinated amide derivatives and their uses as therapeutic agents” (Trillium Therapeutics Inc., priority 2015, dated 2020).

The subject of experiment [1] is spontaneous recurrent hippocampal paroxysmal discharges (HPD). The experiment in a line: Mesial temporal lobe epilepsy (mTLE) mouse model. The following applies: 125 mg/kg; mice lesioned with intrahippocampal kainic acid. It counts as in vivo. The text has this:
The MTLE mouse model recapitulates many of the characteristics observed in human patients with temporal lobe epilepsy (TLE). The MTLE mouse is characterized by an initial neurotoxic event, a unilateral intrahippocampal injection of kainic acid (KA) into the dorsal hippocampus, which induces non-convulsive SE lasting several hours. This initial event is followed by a latent phase. Two to three weeks after KA injection, spontaneous recurrent hippocampal paroxysmal discharges (HPD) are only recorded in the epileptic hippocampus and remain stable and stereotyped for the whole life of the animal. These HPDs occur spontaneously about 30-60 times per hour when the animals are in a state of quiet wakefulness, generally last 15-20 sec and are associated with behavioral arrest and/or mild motor automatisms. […] Data are analyzed for the period of 10 minutes before and 10 minutes after peak time of effect of the investigational compound, as determined from the 6 Hz 44 mA seizure test. […] Data are presented as the raw number of HPDs during the analyzed 20 min period (10 minutes before and 10 minutes after peak time of effect of compound) for each MTLE mouse, group mean number of HPDs, and effect on suppression as represented by percent of baseline HPD values.

Experiment [2] deals with mEC-HC slice from KA-treated rats. The experiment in a line: Spontaneously bursting hippocampal slice in vitro model. The experiment is classed as cell-based, rat. The following applies: 100 μM, FIG. 2. The text has this:
An in vitro screen uses the medial entorhinal cortex-hippocampal (mEC-HC) slice obtained from kainic acid (KA)-treated animals to identify compounds that may be effective in pharmacoresistant epilepsy. Systemic KA treatment in rats is an accepted model of temporal lobe epilepsy (TLE), where an initial insult results in status epilepticus and is followed by a sustained latent period that subsequently gives way to the development of spontaneous seizures. […] Moreover, the mEC-HC slices obtained from KA-treated rats are hyperexcitable in normal artificial cerebrospinal fluid (ACSF) solution as early as one week following KA-induced SE. Thus, this test screens investigational compounds for any potential efficacy against pharmacoresistant TLE. […]
Kainic acid administration/low dose: Animals were treated with Kainic Acid (Tocris, 0222) following a modified protocol described previously (Hellier et al 1998). Seizure activity is scored throughout KA administration using the Racine scale (Racine, 1972). […] Once stage 4-5 seizures are observed, injections cease and the number and stage of seizures observed are recorded on seizure score sheets. The animals are observed and seizures recorded for a minimum of 3.5 h. […]

As for `C[C@@H](Oc1cc(Cl)cc(C(F)(F)F)c1)C(N)=O` [I(D), (2R)-2-[3-chloro-5-(trifluoromethyl)-phenoxy]propanamide], in experiment [1], the “effect against spontaneous recurrent hippocampal paroxysmal discharges (HPD)” value is on record as “effective”. Besides, in experiment [2], the “network hyperexcitability (spontaneous burst activity and duration)” value is listed as “effectively suppressed”.
